Earlier results, collected in patent US20220054558A1, “COMPOSITIONS COMPRISING BACTERIAL STRAINS” (4D Pharma Research Limited, priority 2018, published 2022).

System: C. difficile
Settings: reference [19]

## CCCCC(=O)O [Valeric acid]
  viability of C. difficile: reduce the viability
